Drawing on PubChem BioAssay (NCI), this text covers TGI and GI50 for 10 molecules.

Some test systems named below: SK-MEL-5 melanoma; SF-268 CNS; COLO 205 colon; HS 578T breast; A498 renal; NCI-H226 lung; A549 NSCLC; HCC-2998 colon.
Common to all, as to test: NCI tumour cell line growth inhibition, 48 h

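All cell lines were grown in 96-well plates and treated with compound for 48 hours. Abbreviation: GI50, concentration required for 50% inhibition of growth. At the TGI there is no net growth.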

On to `CC(C)C[C@H]1C(=O)N2CCC[C@H]2[C@]2(O)O[C@](NC(=O)[C@@H]3C=C4c5cccc6[nH]c(Br)c(c56)C[C@H]4N(C)C3)(C(C)C)C(=O)N12`, for which the TGI in the assay on SK-MEL-5 melanoma is over 100 µM; with SF-268 CNS, over 100 µM; in the assay on COLO 205 colon, 23.5 µM; with HS 578T breast it was over 100 µM; in the assay on A498 renal, over 100 µM; with NCI-H226 lung, over 100 µM. Moreover, the TGI in the assay on A549 NSCLC and in the assay on HCC-2998 colon was over 100 µM each time.
As for `CCOc1ccc2c(c1)C(=O)c1c-2n(CCCN)c(=O)c2cc([N+](=O)[O-])ccc12`, the GI50 was 0.0771 µM with SK-MEL-5 melanoma; 0.0115 µM in the assay with SF-268 CNS; 0.361 µM in the assay on COLO 205 colon; 1.93 µM in the assay with HS 578T breast; 0.679 µM with A498 renal; 1.22 µM in the assay on NCI-H226 lung. Moreover, the GI50 in the assay on A549 NSCLC is 0.137 µM; with HCC-2998 colon it was 0.183 µM. Moreover, the TGI in the assay with SK-MEL-5 melanoma worked out at 0.417 µM; in the assay with SF-268 CNS, 1.06 µM; in the assay on COLO 205 colon, 2.11 µM; in the assay on HS 578T breast, 4.04 µM; with A498 renal it was 2.06 µM; in the assay on NCI-H226 lung, 3.26 µM. Also, the TGI was found to be 1.13 µM with A549 NSCLC and 1.4 µM in the assay on HCC-2998 colon.
For the molecule `OCc1ncc(-c2ccccc2)s1`, the GI50 in the assay with SK-MEL-5 melanoma, in the assay on SF-268 CNS, in the assay on COLO 205 colon, in the assay on HS 578T breast, in the assay on A498 renal and in the assay on NCI-H226 lung was over 100 µM each time. The GI50 with A549 NSCLC and in the assay on HCC-2998 colon was over 100 µM in each case. Further, the TGI in the assay on SK-MEL-5 melanoma, in the assay on SF-268 CNS, in the assay with COLO 205 colon, with HS 578T breast, with A498 renal and with NCI-H226 lung was over 100 µM throughout. The TGI in the assay on A549 NSCLC and in the assay on HCC-2998 colon was over 100 µM throughout.
Regarding `C=C1C(=O)O[C@H]2[C@H]1CC/C(COC(=O)C(=O)c1c[nH]c3ccc(Cl)cc13)=C\CC[C@@]1(C)O[C@@H]21`, the GI50 with SK-MEL-5 melanoma is 1.86 µM; with SF-268 CNS it was 1.73 µM; in the assay with COLO 205 colon, 2.12 µM; in the assay on HS 578T breast, 3.52 µM; in the assay on A498 renal it was 2.75 µM; in the assay on NCI-H226 lung, 1.74 µM. Moreover, the values for the GI50 in the assay with A549 NSCLC and in the assay with HCC-2998 colon were 2.52 µM and 1.8 µM, respectively. Moreover, the TGI with SK-MEL-5 melanoma stood at 3.41 µM; in the assay with SF-268 CNS, 3.97 µM; in the assay on COLO 205 colon, 4.58 µM; in the assay on HS 578T breast it was 29.4 µM; with A498 renal, 5.54 µM; with NCI-H226 lung, 3.31 µM. The results for the TGI in the assay on A549 NSCLC and in the assay on HCC-2998 colon were 6.03 µM and 3.36 µM, respectively.
As to `CC(=O)OC1CC2(O)C(CCC3(C)C(c4ccc(=O)oc4)CCC32O)C2(C)CCC(OC3OC(CO)C(O)C(O)C3O)C=C12` (stereo not drawn), the GI50 with SK-MEL-5 melanoma was 0.0196 µM; with SF-268 CNS, 0.0112 µM; in the assay with COLO 205 colon it was 0.0554 µM; in the assay with HS 578T breast it was 0.0103 µM; in the assay with A498 renal, 0.0339 µM; with NCI-H226 lung it was 0.051 µM. For the same molecule, the figures for the GI50 in the assay with A549 NSCLC and with HCC-2998 colon were under 0.01 µM and 0.0735 µM, respectively. Also, the TGI in the assay with SK-MEL-5 melanoma is 0.0672 µM; with SF-268 CNS, 0.04 µM; with COLO 205 colon it was 0.274 µM; in the assay on HS 578T breast it was 0.701 µM; in the assay on A498 renal, 0.287 µM; in the assay with NCI-H226 lung, 0.176 µM. For the same molecule, the values for the TGI in the assay on A549 NSCLC and in the assay on HCC-2998 colon were 0.0278 µM and 0.419 µM, respectively.
For `Cc1cccc2c(N=Nc3ccccc3[N+](=O)[O-])c(O)[nH]c12`, the TGI in the assay with SK-MEL-5 melanoma was over 81.9 µM; in the assay on SF-268 CNS, 33.3 µM; in the assay on COLO 205 colon it was over 63.5 µM; with HS 578T breast it was 16.4 µM; with A498 renal it was over 38.3 µM; in the assay with NCI-H226 lung it was over 39.7 µM. For the same molecule, the figures for the TGI in the assay on A549 NSCLC and in the assay on HCC-2998 colon were over 61.7 µM and over 31.6 µM, respectively.
On to `Cc1ccc(NC(=O)N2CCCCC2)cc1[N+](=O)[O-]`, for which the GI50 with SK-MEL-5 melanoma is over 100 µM; in the assay with SF-268 CNS, over 100 µM; with COLO 205 colon, over 100 µM; in the assay with HS 578T breast it was over 100 µM; with A498 renal it was 87.8 µM; in the assay with NCI-H226 lung it was over 100 µM. Further, the GI50 in the assay with A549 NSCLC and in the assay with HCC-2998 colon was over 100 µM each time. Also, the TGI with SK-MEL-5 melanoma, with SF-268 CNS, with COLO 205 colon, in the assay on HS 578T breast, in the assay with A498 renal and in the assay on NCI-H226 lung was over 100 µM throughout. Also, the TGI in the assay on A549 NSCLC and in the assay on HCC-2998 colon was over 100 µM each time.
Turning to `N#CSCC1CC(O)(c2ccccc2)CC(c2ccc(Cl)cc2)O1` (stereo not drawn), the GI50 in the assay on SK-MEL-5 melanoma was 0.559 µM; in the assay on SF-268 CNS, 1.8 µM; in the assay with COLO 205 colon, 1.91 µM; in the assay with HS 578T breast, 3.24 µM; in the assay with A498 renal, 1.88 µM; with NCI-H226 lung, 5.79 µM. The GI50 in the assay with A549 NSCLC is 3.74 µM; in the assay on HCC-2998 colon, 8.56 µM. In addition, the TGI in the assay on SK-MEL-5 melanoma worked out at 14.9 µM; with SF-268 CNS, 3.29 µM; with COLO 205 colon it was 3.92 µM; in the assay on HS 578T breast, 13.2 µM; with A498 renal, 8.63 µM; in the assay with NCI-H226 lung, 35.6 µM. Besides, the TGI amounted to 17.3 µM in the assay with A549 NSCLC and 21.5 µM with HCC-2998 colon.
As for `CC(C)c1ccc(/C=N/N=C(N)N)cc1`, the GI50 with SK-MEL-5 melanoma was 2.54 µM; in the assay with COLO 205 colon it was 1.72 µM; in the assay with HS 578T breast, 11.5 µM; with A498 renal it was 11.3 µM; in the assay with NCI-H226 lung, 12.2 µM; in the assay on A549 NSCLC, 4.91 µM. In addition, the GI50 with HCC-2998 colon is 2.04 µM. The TGI stood at 8.16 µM with SK-MEL-5 melanoma; 25.1 µM in the assay on SF-268 CNS; 3.33 µM with COLO 205 colon; 36.5 µM in the assay on HS 578T breast; 23.8 µM in the assay on A498 renal; 26.3 µM in the assay with NCI-H226 lung. In addition, the figures for the TGI with A549 NSCLC and in the assay on HCC-2998 colon were 18.8 µM and 4.78 µM, respectively.
For the molecule `N=C1N=C(N)S/C1=C\c1ccc2ncccc2c1`, the GI50 in the assay on SK-MEL-5 melanoma was over 25 µM; with SF-268 CNS it was over 25 µM; with COLO 205 colon it was over 25 µM; in the assay with HS 578T breast, over 19.1 µM; in the assay on A498 renal it was 13.7 µM; with NCI-H226 lung, over 25 µM. Further, the GI50 with A549 NSCLC and in the assay with HCC-2998 colon was over 25 µM each time. For the same molecule, the TGI with SK-MEL-5 melanoma, with SF-268 CNS, in the assay with COLO 205 colon, in the assay with HS 578T breast, with A498 renal and with NCI-H226 lung was over 25 µM throughout. Moreover, the TGI in the assay on A549 NSCLC and with HCC-2998 colon was over 25 µM each time.
